Where “and” joins values, the source holds several entries; their conditions need not be identical. Equal entries are not always repeated. Where two headings read alike, the source gives them in different places.
Tests used:
[1] = Lipophilicity determination by RP-HPLC (capacity factor, log k); type: physicochemical; conditions: end-capped C18, isocratic MeOH 60%/H2O 40%
Protocol: Lipophilicity is a property that has a major effect on bioavailability, biotransformation as well as pharmacological activity, because drugs cross biological membranes through passive transport, which strongly depends on their lipophilicity. Lipophilicity of the studied compounds was determined by RP‑HPLC as capacity factor logarithm (log k). The procedure was performed under isocratic conditions with methanol as an organic modifier in the mobile phase using an end-capped non-polar C18 stationary RP column. The results of ring-substituted naphthalene-1-carboxanilides 1–8c are shown in Table 1 and illustrated in Figure 1. […] Lipophilicity was also calculated as log P using ACD/Percepta ver. 2012 (Advanced Chemistry Development, Inc., Toronto, ON, Canada).
A HPLC system Agilent 1200 equipped with DAD detector (Agilent, USA) was used. A chromatographic column Symmetry® C18 5 μm, 4.6 × 250 mm, Part No. WAT054275 (Waters Corp., Milford, MA, USA) was used. The HPLC separation process was monitored and evaluated by EZChrom Elite software ver. 3.3.2 (Agilent, USA). Isocratic elution by a mixture of MeOH p.a. (60%) and H2O-HPLC Mili-Q grade (40%) as a mobile phase was used. The total flow of the column was 1.0 mL/min, injection 20 μL, column temperature 40 °C, and sample temperature 10 °C. The detection wavelength 210 nm was chosen. The KI methanolic solution was used for the dead time (tD) determination. Retention times (tR) were measured in minutes. The capacity factors k were calculated according to formula k = (tR − tD)/tD, where tR is the retention time of the solute, whereas tD denotes the dead time obtained using an unretained analyte. Log k, calculated from the capacity factor k, is used as the lipophilicity index converted to log P scale.

[2] = Solubility in PET tested medium; type: physicochemical; conditions: PET assay medium, phosphate buffer pH 7.2, DMSO up to 4%
Protocol: (§1) Chloroplasts were prepared from spinach (Spinacia oleracea L.) according to Masarovicova and Kralova. The inhibition of photosynthetic electron transport (PET) in isolated spinach chloroplasts was determined spectrophotometrically (Genesys 6, Thermo Scientific, USA), using an artificial electron acceptor 2,6-dichlorophenol-indophenol (DCIPP) according to Kralova et al., and the rate of photosynthetic electron transport was monitored as a photoreduction of DCPIP. The measurements were carried out in phosphate buffer (0.02 mol/L, pH 7.2) containing sucrose (0.4 mol/L), MgCl2 (0.005 mol/L) and NaCl (0.015 mol/L). The chlorophyll content was 30 mg/L in these experiments and the samples were irradiated (~100 W/m^2 with 10 cm distance) with a halogen lamp (250 W) using a 4 cm water filter to prevent warming of the samples (suspension temperature 22 °C). The studied compounds were dissolved in DMSO due to their limited water solubility. […] The inhibitory efficiency of the studied compounds was expressed by IC50 values, i.e., by molar concentration of the compounds causing 50% decrease in the oxygen evolution rate relative to the untreated control.

[3] = tested on: photosynthetic electron transport (PET) in isolated spinach chloroplasts; assay: Inhibition of photosynthetic electron transport (PET) in isolated spinach chloroplasts; type: biochemical, Spinacia oleracea L.; conditions: DCPIP photoreduction
Protocol: The PET-inhibiting activity was expressed by IC50 value, i.e., compound concentration in mol/L causing 50% inhibition of PET.
as §1

[4] = tested on: Mycobacterium avium subsp. paratuberculosis CIT03; assay: In vitro antimycobacterial evaluation (MIC/IC90, alamarBlue); type: cell-based; conditions: for MIC: Mycobacterium avium
Protocol: The MIC/IC90 value is routinely and widely used in bacterial assays and is a standard detection limit according to the Clinical and Laboratory Standards Institute.
A well-characterized clinical isolate of Mycobacterium avium subsp. paratuberculosis (CIT03) was grown in Middlebrook broth (MB), supplemented with Oleic-Albumin-Dextrose-Catalase supplement (OADC, Becton, Dickinson and Comp., Franklin Lakes, NJ, USA) and mycobactin J (2 µg/mL). Identification of this isolate was performed using biochemical and molecular protocols. At log phase growth, a culture sample (10 mL) was centrifuged at 15,000 rpm/20 min using a bench top centrifuge (Model CR 4-12, Jouan Inc., Winchester, VA, USA). Following removal of the supernatant, the pellet was washed in fresh Middlebrook 7H9GC broth and re-suspended in fresh supplemented MB (10 mL). The turbidity was adjusted to match McFarland standard No. 1 (3 × 10^8 cfu) with MB broth. A further 1:20 dilution of the culture was then performed in MB broth. The antimicrobial susceptibility of the mycobacterial species was investigated in a 96-well plate format. In these experiments, sterile deionized water (300 µL) was added to all outer-perimeter wells of the plates to minimize evaporation of the medium in the test wells during incubation. Each evaluated compound (100 µL) was incubated with the mycobacterial species (100 µL). Dilutions of each compound were prepared in duplicate. For all synthesized compounds, final concentrations ranged from 1,000 µg/mL to 8 µg/mL. All compounds were prepared in DMSO and subsequent dilutions were made in supplemented MB. The plates were sealed with parafilm and incubated at 37 °C for 11 days.
Following incubation, a 10% addition of alamarBlue (AbD Serotec, Kidlington, UK) was mixed into each well and readings at 570 nm and 600 nm were taken, initially for background subtraction and subsequently after 24 h re-incubation. […] For non-interfering compounds, a blue colour in the well was interpreted as an absence of growth and a pink colour was scored as growth. Furthermore percent reduction of alamarBlue was calculated to generate quantitative data on cell viability during exposure to antimycobacterial compounds over a period of 5 days. The formula used to determine percent reduction of alamarBlue has been standardized for colorimetric analysis by Abd Serotec.
The MIC value is routinely and widely used in bacterial assays and is a standard detection limit according to the Clinical and Laboratory Standards Institute.

[5] = 264 h, clinical isolate CIT03, 11 days at 37 °C, alamarBlue, MIC = 90% or greater reduction of growth, read-out: MAP MIC/IC90

O=C(Nc1ccccc1C(F)(F)F)c1cccc2ccccc12 [Compound 7a, N-[2-(Trifluoromethyl)phenyl]naphthalene-1-carboxamide]
log k [1]: 0.7595 | solubility in tested medium (PET experiments) [2]: precipitation

Cc1ccccc1NC(=O)c1cccc2ccccc12 [Compound 3a, N-(2-Methylphenyl)naphthalene-1-carboxamide]
log k [1]: 0.5309

O=C(Nc1cccc(Cl)c1)c1cccc2ccccc12 [Compound 5b, N-(3-Chlorophenyl)naphthalene-1-carboxamide]
log k [1]: 0.9357 | IC50 [3]: 107 µM

O=C(Nc1ccc([N+](=O)[O-])cc1)c1cccc2ccccc12 [Compound 8c, N-(4-Nitrophenyl)naphthalene-1-carboxamide]
log k [1]: 0.7328 | IC50 [3]: 129 µM

O=C(Nc1cccc([N+](=O)[O-])c1)c1cccc2ccccc12 [Compound 8b, N-(3-Nitrophenyl)naphthalene-1-carboxamide]
log k [1]: 0.8155 | IC50 [3]: 492 µM | solubility in tested medium (PET experiments) [2]: limited solubility

CN(C)C(=O)Nc1ccc(Cl)c(Cl)c1 [DCMU, 3-(3,4-dichlorophenyl)-1,1-dimethylurea, reference compound]
IC50 [3]: ~1.9 µM and 1.9 µM

O=C(Nc1cccc(C(F)(F)F)c1)c1cccc2ccccc12 [Compound 7b, N-[3-(Trifluoromethyl)phenyl]naphthalene-1-carboxamide]
log k [1]: 1.0862 | IC50 [3]: 114 µM

O=C(Nc1ccc(F)cc1)c1cccc2ccccc12 [Compound 4c, N-(4-Fluorophenyl)naphthalene-1-carboxamide]
log k [1]: 0.6315 | solubility in tested medium (PET experiments) [2]: precipitation

O=C(Nc1ccccc1Cl)c1cccc2ccccc12 [Compound 5a, N-(2-Chlorophenyl)naphthalene-1-carboxamide]
log k [1]: 0.8322 | solubility in tested medium (PET experiments) [2]: precipitation

O=C(Nc1ccccc1[N+](=O)[O-])c1cccc2ccccc12 [Compound 8a, N-(2-Nitrophenyl)naphthalene-1-carboxamide]
log k [1]: 0.9090 | IC50 [3]: 476 µM | solubility in tested medium (PET experiments) [2]: limited solubility

COc1ccc(NC(=O)c2cccc3ccccc23)cc1 [Compound 2c, N-(4-Methoxyphenyl)naphthalene-1-carboxamide]
log k [1]: 0.4953

O=C(Nc1ccccc1Br)c1cccc2ccccc12 [Compound 6a, N-(2-Bromophenyl)naphthalene-1-carboxamide]
log k [1]: 0.8892 | solubility in tested medium (PET experiments) [2]: precipitation

NNC(=O)c1ccncc1 [INH, isoniazid, reference compound]
MIC [4, 5]: 1820 µM

O=C(Nc1ccccc1)c1cccc2ccccc12 [Compound 1, N-Phenylnaphthalene-1-carboxamide]
log k [1]: 0.5620

CO[C@H]1/C=C/O[C@@]2(C)Oc3c(C)c(O)c4c(O)c(c(/C=N/N5CCN(C)CC5)c(O)c4c3C2=O)NC(=O)/C(C)=C\C=C\[C@H](C)[C@H](O)[C@@H](C)[C@@H](O)[C@@H](C)[C@H](OC(C)=O)[C@@H]1C [RIF, rifampicin, reference compound]
MIC ([4]; 264 h, read-out: MAP MIC/IC90): 109 µM | MIC ([4]; clinical isolate CIT03, read-out: MIC): 90 µg/mL | MAP MIC/IC90 ([4]; clinical isolate CIT03, 11 days at 37 °C, alamarBlue, MIC = 90% or greater reduction of growth): 109 µM

O=C(Nc1ccc(Cl)cc1)c1cccc2ccccc12 [Compound 5c, N-(4-Chlorophenyl)naphthalene-1-carboxamide]
log k [1]: 0.9223 | IC50 [3]: 102 µM

O=C(Nc1ccccc1F)c1cccc2ccccc12 [Compound 4a, N-(2-Fluorophenyl)naphthalene-1-carboxamide]
log k [1]: 0.5592 | solubility in tested medium (PET experiments) [2]: precipitation

O=C(Nc1ccc(C(F)(F)F)cc1)c1cccc2ccccc12 [Compound 7c, N-[4-(Trifluoromethyl)phenyl]naphthalene-1-carboxamide]
log k [1]: 1.1480 | MIC [4, 5]: 793 µM | IC50 [3]: 59 µM

O=C(Nc1ccc(Br)cc1)c1cccc2ccccc12 [Compound 6c, N-(4-Bromophenyl)naphthalene-1-carboxamide]
log k [1]: 0.9985 | MIC [4, 5]: 184 µM | IC50 [3]: 365 µM | solubility in tested medium (PET experiments) [2]: limited solubility

O=C(Nc1cccc(Br)c1)c1cccc2ccccc12 [Compound 6b, N-(3-Bromophenyl)naphthalene-1-carboxamide]
log k [1]: 1.0047 | IC50 [3]: 278 µM | solubility in tested medium (PET experiments) [2]: limited solubility

Reference: article PMC6270837, “Preparation and Biological Properties of Ring-Substituted Naphthalene-1-Carboxanilides” (Molecules, 2014)
